Patent publication EP4755881A1 (Wuhan Createrna Science and Technology Co., Ltd., priority 2023, dated 2025)
Read-outs that look alike come from different tables or passages of the source. Blank lines part the entries; values can stand above or below the compound they belong to.

Experiments:
[1] = Pharmacokinetic study in rats (oral gavage and tail vein injection, plasma LC-MS/MS); format: in vivo
Protocol: Male SPF-grade SD rats (Beijing Vital River Laboratory Animal Technology Co., Ltd.) with a body weight range of 200 to 250 g were used. After acclimatization, the rats were administered a clear solution of the compound of the present disclosure via oral gavage (Po, fasted overnight before administration with free access to water, food returned 4 hours after administration) and tail vein injection (Iv, free access to food and water throughout the administration). Blood samples were collected from the orbital venous plexus/jugular vein of rats at specified time points after administration (blood collection time points for the PO group: 0.167, 0.5, 1, 2, 4, 6, 8, and 24 h; for the IV group: 0.033, 0.167, 1, 2, 4, 6, 8, and 24 h). The concentration of compounds in plasma was detected by LC-MS/MS (AB SCIEX Qtrap4500). Data were analyzed using WinNonlin (version 5.2.1 Pharsight, Mountain View, CA) with a non-compartmental model to obtain PK parameters (including Cmax, C0, Tmax, AUClast, AUCinf, T1/2, etc.).
Table 3: Results of in vivo pharmacokinetic studies of compounds of the present disclosure in rats
The vehicle for the Po group compound was 5% DMSO + 5% ethanol + 60% PEG400 + 30% normal saline; the vehicle for the Iv group compound was 10% ethanol + 20% pure water + 70% PEG400 solution.

[2] = target: hLPAR1 (human lysophosphatidic acid receptor 1, Accession No.: NM_001401.4) (Homo sapiens, UniProt Q92633); assay: cell-based; conditions: FLIPR method, CHO-K1 cells overexpressing hLPAR1
Protocol: The antagonist properties of the compounds in the present disclosure were determined using the FLIPR (Fluorometric Imaging Plate Reader) method in CHO-K1 cells (Chinese Hamster Ovary cells K1, ATCC) overexpressing hLPAR1 (human lysophosphatidic acid receptor 1, Accession No.: NM_001401.4).
CHO-K1 cells stably expressing hLPAR1 were placed in a cell culture incubator at 37°C with 5% CO2 and cultured in F-12 medium containing 10% FBS (fetal bovine serum, Gibco, 10099-141), 1% penicillin-streptomycin (Gibco, 15140-122), and 0.4 mg/mL Hygromycin B (Gibco, 10687010). 18-24 hours before the FLIPR experiment, the cells were seeded into a 96-well plate at a density of 250,000 cells/mL (25,000 cells/well) and incubated overnight in the cell culture incubator. On the day of the experiment, the medium was removed, and the cells were washed with FLIPR buffer (2.5 mM probenecid (Thermo, P36400), 1.3 mM CaCl2, 3.3 mM Na2CO3, 1 mM MgSO4, 20 mM HEPES (Invitrogen, 15630080), 1× HBSS (Invitrogen, 14065056), 0.1% BSA (BioSharp, 70080030)). 75 µL of […] Fluo-4 AM fluorescent dye (Thermo, F14202) was added to each well and incubated for 1.0 hour at 37°C for dye loading. The 96-well plate was then washed once with buffer, and 50 µL of buffer containing the test compound or vehicle was added to each well, followed by incubation at room temperature for 30 min. The cell plate was then placed into the FLIPR for baseline fluorescence measurement (excitation wavelength at 485 nm, emission wavelength at 525 to 535 nm). Subsequently, 50 µL/well of agonist (final concentration 1 µM oleoyl-L-α-lysophosphatidic acid sodium salt (Sigma, L7260)) or vehicle (ultrapure water) was added, and fluorescence values were measured at 1-second intervals for 2 min. Finally, the output fluorescence counts were analyzed using GraphPad Prism 9.0 software log(inhibitor) vs. response--Variable slope (four parameters) equation to calculate IC50 values.
Table 1: Inhibitory activity data of compounds against LPAR1

[3] = male, rat, SD rats, Iv, 1 mg/kg
[4] = male, rat, SD rats, Iv, 1 mg/kg, read-out: Cmax
[5] = male, rat, SD rats, Po, 1 mg/kg
[6] = male, rat, SD rats, Po, 1 mg/kg, read-out: Cmax
[7] = Table 1, read-out: LPAR1 inhibitory activity IC50
[8] = LPAR1 inhibitory activity IC50, Table 1

Chain of hLPAR1 (human lysophosphatidic acid receptor 1, Accession No.: NM_001401.4) (Q92633 whole entry): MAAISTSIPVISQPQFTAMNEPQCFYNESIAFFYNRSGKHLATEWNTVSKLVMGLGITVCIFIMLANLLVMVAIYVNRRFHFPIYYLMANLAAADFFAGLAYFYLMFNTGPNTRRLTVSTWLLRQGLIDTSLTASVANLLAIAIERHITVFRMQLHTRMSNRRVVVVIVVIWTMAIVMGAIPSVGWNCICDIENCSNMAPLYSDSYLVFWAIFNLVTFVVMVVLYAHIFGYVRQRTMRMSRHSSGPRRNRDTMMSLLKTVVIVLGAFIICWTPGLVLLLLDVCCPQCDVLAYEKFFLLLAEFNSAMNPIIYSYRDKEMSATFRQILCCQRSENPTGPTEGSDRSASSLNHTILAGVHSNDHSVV

half-life ([1]; male, SD, rat, iv, 1 mg/kg): 446 min
half-life ([1]; male, SD, rat, po, 1 mg/kg): 478 min
AUC(0-t) [1, 3]: 5000 to 10000 ng·h/mL
Cmax [1, 4]: 800 to 5000 ng/mL
AUC(0-t) [1, 5]: 5000 to 10000 ng·h/mL
Cmax [1, 6]: 800 to 5000 ng/mL
IC50 [2, 7]: 25.9 nM
Structure (SMILES): CCC(F)(F)[C@@H](C)OC(=O)Nc1c(-c2ccc(C#C[C@@H]3CC[C@H]3C(=O)O)c(C)n2)nnn1C (mixture of isomers) [212-B, trans-2-((6-(5-(((((R)-3,3-difluoropentan-2-yl)oxy)carbonyl)amino)-1-methyl-1H-1,2,3-triazol-4-yl)-2-methylpyridin-3-yl)ethynyl)cyclobutane-1-carboxylic acid]

Cmax ([1]; SD rats, Iv, 1 mg/kg): ** (800 ng/mL ≤ Cmax < 5000 ng/mL)
T1/2 ([1]; SD rats, Iv, 1 mg/kg): 8.67 h
half-life ([1]; male, SD, rat, po, 3 mg/kg): 576 min
AUC(0-t) ([1]; male, rat, SD rats, Po, 3 mg/kg): 10000 to 20000 ng·h/mL
Cmax ([1]; male, rat, SD rats, Po, 3 mg/kg, read-out: Cmax): 800 to 5000 ng/mL
IC50 [2, 7]: 36.8 nM
Structure (SMILES): Cc1nc(-c2nnn(C)c2NC(=O)O[C@H](C)CC(C)(F)F)ccc1C#C[C@@H]1CC[C@H]1C(=O)O (mixture of isomers) [213-B, trans-2-((6-(5-(((((R)-4,4-difluoropentan-2-yl)oxy)carbonyl)amino)-1-methyl-1H-1,2,3-triazol-4-yl)-2-methylpyridin-3-yl)ethynyl)cyclobutane-1-carboxylic acid]
AUClast ([1]; SD rats, Iv, 1 mg/kg): *** (5000 ng/mL*hr ≤ AUClast < 10000 ng/mL*hr)

half-life ([1]; male, SD, rat, iv, 1 mg/kg): 233 min
half-life ([1]; male, SD, rat, po, 1 mg/kg): 254 min
AUC(0-t) [1, 3]: 5000 to 10000 ng·h/mL
Cmax [1, 4]: 800 to 5000 ng/mL
AUC(0-t) [1, 5]: 5000 to 10000 ng·h/mL
Cmax [1, 6]: 800 to 5000 ng/mL
IC50 [2, 7]: 11.4 nM
Structure (SMILES): CCC(F)(F)[C@@H](C)OC(=O)Nc1c(-c2ccc(C#C[C@@H]3CCC[C@H]3C(=O)O)c(C)n2)nnn1C (mixture of isomers) [219-B, trans-2-((6-(5-(((((R)-3,3-difluoropentan-2-yl)oxy)carbonyl)amino)-1-methyl-1H-1,2,3-triazol-4-yl)-2-methylpyridin-3-yl)ethynyl)cyclopentane-1-carboxylic acid]

half-life ([1]; male, SD, rat, iv, 1 mg/kg): 303 min
half-life ([1]; male, SD, rat, po, 1 mg/kg): 244 min
AUC(0-t) [1, 3]: 5000 to 10000 ng·h/mL
Cmax [1, 4]: 800 to 5000 ng/mL
AUC(0-t) [1, 5]: 5000 to 10000 ng·h/mL
Cmax [1, 6]: 800 to 5000 ng/mL
IC50 [2, 7]: 19.2 nM
Structure (SMILES): Cc1nc(-c2nnn(C)c2NC(=O)O[C@H](C)CC(C)(C)F)ccc1C#C[C@@H]1CCC[C@H]1C(=O)O (mixture of isomers) [244-B, trans-2-((6-(5-(((((R)-4-fluoro-4-methylpentan-2-yl)oxy)carbonyl)amino)-1-methyl-1H-1,2,3-triazol-4-yl)-2-methylpyridin-3-yl)ethynyl)cyclopentane-1-carboxylic acid]

half-life ([1]; male, SD, rat, iv, 1 mg/kg): 450 min
AUC(0-t) [1, 3]: 3000 to 5000 ng·h/mL
Cmax [1, 4]: 5000 to 8000 ng/mL
IC50 [2, 7]: 37.2 nM
Structure (SMILES): Cc1nc(-c2nnn(C)c2NC(=O)OC(C)c2cc(F)cnc2Cl)ccc1C#CC1(CC(=O)O)CC1 (single isomer, unassigned) [023-A, 2-(1-((6-(5-(((1-(2-chloro-5-fluoropyridin-3-yl)ethoxy)carbonyl)amino)-1-methyl-1H-1,2,3-triazol-4-yl)-2-methylpyridin-3-yl)ethynyl)cyclopropyl)acetic acid]

Structure (SMILES): CCC(F)(F)CC(C)OC(=O)Nc1c(-c2ccc(C#CC3CCC3C(=O)O)c(C)n2)nnn1C (single isomer, unassigned) [245-B]
AUC(0-t) ([1]; rat, SD rats, Iv, 1 mg/kg): 3000 to 5000 ng·h/mL
half-life ([1]; rat, SD rats, Iv, 1 mg/kg): 433 min
Cmax ([1]; rat, SD rats, Iv, 1 mg/kg, read-out: Cmax): 800 to 5000 ng/mL
AUC(0-t) ([1]; rat, SD rats, Po, 1 mg/kg): 3000 to 5000 ng·h/mL
half-life ([1]; rat, SD rats, Po, 1 mg/kg): 400 min
Cmax ([1]; rat, SD rats, Po, 1 mg/kg, read-out: Cmax): 200 to 800 ng/mL
IC50 [2, 7]: 34.6 nM

IC50 [2, 7]: 12.7 nM
Structure (SMILES): CCC(F)(F)[C@@H](C)OC(=O)Nc1c(-c2ccc(C#CC3(CC(=O)O)CC3)c(Cl)n2)nnn1C [compound 209, (R)-2-(1-((2-chloro-6-(5-((((3,3-difluoropentan-2-yl)oxy)carbonyl)amino)-1-methyl-1H-1,2,3-triazol-4-yl)pyridin-3-yl)ethynyl)cyclopropyl)acetic acid]

IC50 [2, 7]: 13.8 nM
Structure (SMILES): Cc1nc(-c2nnn(C)c2COC(=O)N(C)C(C)C2CCC2)ccc1C#CC1(CC(=O)O)CC1 (centres unmarked) [compound 211, 2-(1-((6-(5-((((1-cyclobutylethyl)(methyl)carbamoyl)oxy)methyl)-1-methyl-1H-1,2,3-triazol-4-yl)-2-methylpyridin-3-yl)ethynyl)cyclopropyl)acetic acid]

IC50 [2, 7]: 26.6 nM
Structure (SMILES): CCCc1ccnc(OCc2c(-c3ccc(C#CC4(CC(=O)O)CC4)c(C)n3)nnn2C)n1 [compound 217, 2-(1-((2-methyl-6-(1-methyl-5-(((4-propylpyrimidin-2-yl)oxy)methyl)-1H-1,2,3-triazol-4-yl)pyridin-3-yl)ethynyl)cyclopropyl)acetic acid]

IC50 [2, 7]: 90.2 nM
Structure (SMILES): CN(CCCCF)C(=O)OCc1c(-c2ccc(C#CC3(CC(=O)O)CC3)c(C3CC3)n2)nnn1C [compound 218, 2-(1-((2-cyclopropyl-6-(5-((((4-fluorobutyl)(methyl)carbamoyl)oxy)methyl)-1-methyl-1H-1,2,3-triazol-4-yl)pyridin-3-yl)ethynyl)cyclopropyl)acetic acid]

Structure (SMILES): Cc1nc(-c2nnn(C)c2NC(=O)O[C@H](C)CC(C)C)ccc1C#CC1(CC(=O)O)CC1 [compound 220]
IC50 [2, 8]: 15.5 nM

IC50 [2, 7]: 0.4 nM
Structure (SMILES): Cc1nc(-c2nnn(C)c2NC(=O)O[C@H](C)c2ccccc2)ccc1C#C[C@@H]1CC(F)(F)C[C@H]1C(=O)O [compound 226]

IC50 [2, 7]: 59.9 nM
Structure (SMILES): CCc1nc(-c2nnn(C)c2COC(=O)N(C)CCCCF)ccc1C#CC1(CC(=O)O)CC1 [compound 230]

IC50 [2, 7]: 10.2 nM
Structure (SMILES): Cc1nc(-c2nnn(C)c2NC(=O)O[C@H](C)CC(C)(F)F)ccc1C#C[C@@H]1CC(F)(F)C[C@H]1C(=O)O [compound 247]

IC50 [2, 7]: 47.3 nM
Structure (SMILES): CCC(F)(F)C[C@@H](C)OC(=O)Nc1c(-c2ccc(C#CC3(CC(=O)O)CC3)c(C)n2)nnn1C [compound 264]

IC50 [2, 7]: 14.9 nM
Structure (SMILES): Cc1nc(-c2nnn(C)c2NC(=O)O[C@H](C)CC(C)(C)F)ccc1C#C[C@@H]1CC(F)(F)C[C@H]1C(=O)O [compound 273]

Structure (SMILES): Cc1nc(-c2nnn(C)c2NC(=O)O[C@H](C)CC2CC2)ccc1C#CC1(CC(=O)O)CC1 [compound 302]
IC50 [2, 8]: 24.7 nM

IC50 [2, 7]: 151 nM
Structure (SMILES): Cc1nc(-c2nnn(C)c2NC(=O)O[C@H](C)C(F)(F)C(C)C)ccc1C#C[C@@H]1CC[C@H]1C(=O)O [compound 307]

Structure (SMILES): Cc1nc(-c2nnn(C)c2NC(=O)O[C@H](C)C(C)C)ccc1C#CC1(CC(=O)O)CC1 [compound 310]
IC50 [2, 8]: 114 nM

Structure (SMILES): Cc1nc(-c2nnn(C)c2NC(=O)OC(C)C(C)(C)C)ccc1C#CC1(CC(=O)O)CC1 (centres unmarked) [compound 319]
IC50 [2, 8]: 124 nM

Structure (SMILES): CCC[C@@H](C)OC(=O)Nc1c(-c2ccc(C#CC3(CC(=O)O)CCC3)c(C)n2)nnn1C [compound 325]
IC50 [2, 8]: 40.3 nM

IC50 [2, 7]: 2.6 nM
Structure (SMILES): CCC[C@@H](C)OC(=O)Nc1c(C)noc1-c1ccc(C#C[C@@H]2CC[C@H]2C(=O)O)c(C)n1 [compound 339]

IC50 [2, 7]: 5.7 nM
Structure (SMILES): Cc1nc(-c2onc(C)c2NC(=O)O[C@H](C)CC(C)(F)F)ccc1C#C[C@@H]1CCC[C@H]1C(=O)O [compound 343]

IC50 [2, 7]: 104 nM
Structure (SMILES): Cc1noc(-c2ccc(C#C[C@@H]3CCC[C@H]3C(=O)O)cn2)c1NC(=O)O[C@H](C)CC(C)(F)F [compound 344]

IC50 [2, 7]: 203 nM
Structure (SMILES): CCOCc1ccnc(NCc2c(-c3ccc(C#CC4(CC(=O)O)CC4)c(C)n3)nnn2C)n1 [compound 364]

IC50 [2, 7]: 11.8 nM
Structure (SMILES): Cc1noc(-c2ccc(C#CC3(CNS(=O)(=O)O)CC3)c(F)c2)c1NC(=O)O[C@H](C)c1ccccc1Cl [compound 460]
